Data set [1] deals with mTOR and pmTOR. Description: Immunofluorescence of mTOR and pmTOR in colon, breast and lung cancer cell lines. The class given is cell-based, human. The source says:
The human cell lines used in the study included: 22Rv1, LNCaP, PC-3, RC77 T/E and MDA PCa 2b (prostate cancer cell lines), MDA MB 231 and MCF-7 (breast cancer cell lines), HT-29 and SW620 (colon cancer cell lines), A549 and H1299 (lung cancer cell lines). RWPE-1, HMEC, FHC, and BEAS-2B were used as normal control cell lines for prostate, breast, colon, and lung, respectively. Note that 22Rv1 is a castration-resistant […] prostate cancer cell line, while LNCaP and PC-3 were derived from lymph node and bone metastasis of […] prostate cancer patients, respectively. RC77 T/E was derived from a primary prostate cancer patient, and MDA PCa 2b was derived from bone metastasis of an prostate cancer patient. The cell lines described were used as in vitro cell models to evaluate the functional roles of miR-99b-5p/MTOR pairing in the […] prostate cancer, African American prostate cancer and solid tumors in general. The cells were grown in specific cell culture media described as follows: 22Rv1, LNCaP, MCF-7 and H1299 were cultured in RPMI-1640 with 10% fetal bovine serum (FBS), PC-3, A549 and FHC were cultured in DMEM with 10% FBS, RC77 T/E was cultured in Keratinocyte SFM with human recombinant epidermal growth factor (EGF) and bovine pituitary extract (BPE), MDA PCa 2b were cultured in BRFF-HPC1 with 20% FBS, HT-29 was cultured in McCory's with 10% FBS, SW620 and MDA MB 231 were cultured in L-15 with 10% FBS, HMEC was cultured in mammary epithelial cell basal medium with supplements, and BEAS-2B was cultured in BEBM base medium with BEBM supplement kit. Cells were maintained at 37° C. in a 5% CO2 incubator.
The 22Rv1, LNCaP, PC-3, MDA PCa 2b, MCF7, H1299, A549, HT-29, SW620, MDA MB-231, HMEC and BEAS-2B cells were seeded at a density of 3×10^5 cells/well in 6-well plates. RC77 T/E cells were seeded at a density of 5×10^5 cells/well in 6-well plates. The cells were grown for 24 h and then transfected with nonsense/scrambled RNA (NS) and miR-99b-5p mimic (Ambion) using DharmaFECT4 transfection reagent (Dharmacon). After 24 h, fresh media were applied to replace the transfection reagent-containing media, then the cells were incubated for an additional 24 h.
In this process, 4×10^4 cells were seeded on cover slip and allowed to adhere for 24 h in 5% CO2 incubator at 37° C. All the cells were subjected to immunofluorescence assays 48 h following transfection. Briefly, cells were washed with 1×PBS, fixed in 4% paraformaldehyde, and permeabilized with 0.1% Triton X-100. Cells were then blocked for 1 h with 2% BSA in 1×PBS. […] All labeled and/or prepared cells mounted on glass slides and were visualized by fluorescence microscopy (Olympus). […]

Data set [2] deals with MTOR. Description: Western blot of mTOR in transfected prostate cancer cells. The class given is cell-based, human. The note with it: mimic transfection vs NS transfection. Here is the method:
[…] RC77 T/E, a primary prostate cancer cell line derived from a patient, was kindly provided by Dr. Johng Rhim at Center for Prostate Disease Research (CPDR) in Rockville, MD. LNCaP and PC-3 were served as prostate cancer cell line models, and RC77 T/E and MDA PCa 2b were served as prostate cancer cell models in the study. The cells were cultured in specific cell culture media, LNCaP was cultured in RPMI with 10% fetal bovine serum (FBS), PC-3 was cultured in DMEM with 10% FBS, MDA PCa 2b were cultured in BRFF-HPC1 with 20% FBS and RC77 T/E was cultured in Keratinocyte SFM with Human Recombinant Epidermal Growth Factor (EGF 1-53) and Bovine Pituitary Extract (BPE). Cells were maintained at 37° C. in a 5% CO2 incubator. LNCaP, PC-3 and MDA PCa 2b cells were seeded at density 3×10^4 cells/well in 6-well plates. RC77 T/E cells were seeded at density 5×10^4 cells/well in 6-well plates. […]
For measurement of the gene expression at protein level, proteins were extracted using M-PER Mammalian Protein Extraction Reagent (Thermo Fisher Scientific) with protease and phosphatase inhibitor cocktail (Thermo Fisher Scientific). Protein concentrations were quantified using BCA assay kit (Thermo Fisher Scientific). […]
In general terms: A western blot detects proteins with antibodies after separation by electrophoresis.

Where [3] appears, read: HT-29, SW620, MDA MB 231, MCF-7, A549, H1299, miR-99b-5p transfected vs NS transfected.
Setting [4] is: six colon, breast, lung cancer cell lines, mimic vs NS.

As to “miR-99b-5p mimic: miRNA mimic of miR-99b-5p (SEQ ID NO: 2, CACCCGUAGAACCGACCUUGCG), purchased from Ambion (listed as RNA, chemistry not given here; listed as Homo sapiens)”, in data set [1] (setting [3]), the “mTOR levels (immunofluorescence)” value is “generalized reduction” and the “pmTOR levels (immunofluorescence)” value was “generalized reduction”. Besides, in data set [1] (setting [4]), the “cytoplasmic mTOR/nuclear mTOR ratios (immunofluorescence)” value is recorded as “elevated” and the “cytoplasmic pmTOR/nuclear pmTOR ratios (immunofluorescence)” value is listed as “elevated”. For the same substance, in data set [2], the “mTOR level (Western blot)” value is “downregulated”.

The values above are taken from patent US20240287614A1, “RECIPROCAL MICRORNA-MRNA PAIRINGS AS BIOMARKERS AND THERAPEUTIC TARGETS IN CANCER” (UNIVERSITY OF MARYLAND, EASTERN SHORE, priority 2023, published 2024).
